According to paper PMC4047216 (European journal of pharmacology, 2014):

Columns and labels:
[1] = ref Saadeddin et al., 2004; cited from earlier work
[2] = system: HP-LTLC cells; assay: MTT combination of VN/14-1 with thapsigargin, Chou-Talalay analysis; type: cell-based, human; conditions: in combination VN/14-1 + thapsigargin

SMILES	Oral bioavailability (F) [1]	DRI (dose reduction index) ([2]; 50% inhibition)	DRI (dose reduction index) ([2]; 75% inhibition)	DRI (dose reduction index) ([2]; 95% inhibition)
CC1=C(/C=C/C(C)=C/C=C/C(C)=C/C(=O)O)C(C)(C)CCC1 [ATRA]	~ 40%			
C/C=C(/C)C(=O)O[C@H]1C(C)=C2[C@H]([C@@H]1OC(=O)CCCCCCC)[C@@](C)(OC(C)=O)C[C@H](OC(=O)CCC)[C@@]1(O)[C@H]2OC(=O)[C@@]1(C)O [thapsigargin]		11.498	31.584	172.494
